Experimental data: US20120214846A1, “HEXAHYDROCYCLOPENTYL[F]INDAZOLE PYRIDYL ETHANOLS AND DERIVATIVES THEREOF AS SELECTIVE GLUCOCORTICOID RECEPTOR MODULATORS” (MERCK SHARP & DOHME CORP, priority 2009, published 2012)
≈ marks a conversion by molar mass, not a printed value. Read-outs that look alike come from different tables or passages of the source.

Columns and labels:
GR [1] = biological target: T1, GR (Homo sapiens, UniProt P04150); assay: Trans-Activation Modulation of Glucocorticoid Receptor Assay (GRAMMER), MMTV-LUC reporter, A549 cells; type: cell-based; parameters: endogenous in cells
T1 sequence (P04150 1-777): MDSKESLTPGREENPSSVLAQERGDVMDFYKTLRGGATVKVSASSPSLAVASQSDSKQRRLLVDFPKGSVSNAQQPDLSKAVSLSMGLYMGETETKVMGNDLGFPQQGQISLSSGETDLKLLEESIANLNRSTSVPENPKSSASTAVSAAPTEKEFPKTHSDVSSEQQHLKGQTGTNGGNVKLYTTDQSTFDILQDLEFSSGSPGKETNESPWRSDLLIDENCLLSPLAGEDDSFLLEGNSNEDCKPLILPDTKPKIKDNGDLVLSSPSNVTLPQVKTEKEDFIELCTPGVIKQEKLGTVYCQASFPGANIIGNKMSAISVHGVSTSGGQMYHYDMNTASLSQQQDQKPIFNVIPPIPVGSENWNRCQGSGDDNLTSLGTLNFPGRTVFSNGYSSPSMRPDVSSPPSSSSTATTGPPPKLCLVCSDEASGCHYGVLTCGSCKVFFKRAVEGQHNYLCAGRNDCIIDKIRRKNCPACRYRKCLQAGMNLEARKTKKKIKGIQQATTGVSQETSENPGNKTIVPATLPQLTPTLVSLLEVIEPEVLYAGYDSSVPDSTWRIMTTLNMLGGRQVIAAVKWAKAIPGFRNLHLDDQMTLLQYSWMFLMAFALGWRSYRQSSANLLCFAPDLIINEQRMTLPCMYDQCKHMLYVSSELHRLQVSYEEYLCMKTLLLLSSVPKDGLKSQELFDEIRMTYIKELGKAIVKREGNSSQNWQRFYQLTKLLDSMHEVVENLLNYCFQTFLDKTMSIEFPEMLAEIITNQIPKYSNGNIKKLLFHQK
Source text: Trans-Activation Modulation of Glucocorticoid Receptor Assay
This assay assesses the ability of test compounds to control transcription from the MMTV-LUC reporter gene in lung adenocarcinoma A549 cells or HeLa cells, a human […] cell line that naturally expresses the human GR. The assay measures induction of a modified MMTV LTR/promoter linked to the LUC reporter gene.
The routine transient assay consists of plating 7,000-25,000 cells/well of a white, clear-bottom 96-well plate. Alternatively, 384-well plates can be used at a cell concentration of 10,000/well. The media that the cells are plated in is “exponential growth medium” which consists of phenol red-free RPMI1640 containing 10% FBS, 4 mM L-glutamine, 20 mM HEPES, 10 ug/mL human insulin, and 20 ug/mL gentamicin. Incubator conditions are 37° C. and 5% CO2. The transfection is done in batch mode. The cells are trypsinized and counted to the right cell number in the proper amount of fresh media. It is then gently mixed with the FuGene6/DNA mix and plated onto the 96 or 384-well plate, all the wells receive 100 uL or 40 uL, respectively, of medium+lipid/DNA complex then incubated 37° C. overnight. The transfection cocktail consists of serum-free OptiMEM, FuGene6 reagent and DNA. The manufacturer's (Roche Biochemical) protocol for cocktail setup is as follows: The lipid to DNA ratio is approximately 2.5:1 and the incubation time is 20 min at room temperature. Sixteen to 24 hours after transfection, the cells are treated with dexamethasone to a final concentration of 10 nM as well as the compound of interest, such that final DMSO (vehicle) concentration is equal to or less than 1%. Each plate also contains samples that are treated with 10 nM dexamethasone alone, which is used as the 100% activity control. The cells are exposed to the compounds for 24 hours. After 24 hours, the cells are lysed by a Promega cell culture lysis buffer for approximately 30 min and then the luciferase activity in the extracts is assayed in the 96-well format luminometer. In 384-well format, Steady-Glo (Promega) or Steady-Lite (PerkinElmer) can be used by adding an equal volume of reagent to the media present in each well. […] Antagonist activity is calculated by determining the decrease in dexamethasone-induced activity in response to compound treatment relative to samples that were treated with dexamethasone alone. […] This transactivation assay can be performed in an agonist and antagonist mode to identify these different activities.
The action of compounds is also tested in an antagonist mode (Anti-GRAMMER) in which the cells are treated with medium containing an agonist such as 10 nM DEX and the ability to agents to inhibit the activation by an agonist is measured.

GR [2] = biological target: T1, GR; assay: Transrepression Assay (GITAR), TNFα-β-lactamase reporter, U937 cells; type: cell-based; parameters: U937 cells contain an endogenous glucocorticoid receptor (GR); endogenous in cells; host or cells: U937 cells stably transfected with the TNF-alpha promoter beta-lactamase reporter
Source text: This assay assesses the ability of test compounds to control transcription from the TNFα-β-lactamase reporter gene in U937 cells, a human myelomonocytic leukemia cell line that naturally expresses the human GR. The assay measures compound dependent-repression of the TNFa promoter linked to a reporter gene.
The human U937 cells that had been stablely transfected with the TNF-α promoter driving […] are used for this assay. U937 cells contain an endogenous glucocorticoid receptor (GR). […] 50,000 cells/well are plated in 96 well black-walled plates the day of assay. Test compounds are added 10 μL/well, and cells are incubated at 37° C. for 30˜45 min. For assaying compounds, first dilute 1:10 in DMSO to make 1 mM, then further dilute 1:100 in medium to make 10× stock prior to adding to the cells. Add 50 ng/ml PMA (Sigma, cat#P8139) 10 μL/well to a final concentration 5 ng/ml, and 1 μg/ml LPS (Sigma, cat#L4130) 10 μL/well to a final concentration 100 ng/ml. Incubate cells at 37° C. overnight for ˜18 hr. PMA is stored frozen as 100 μg/ml stock in DMSO. Dilute 1:10 in DMSO for a working stock of […] and store at −20 C. For assaying, dilute the 10 μg/ml working stock 1:200 in medium to make a 10× solution (50 ng/ml). Store frozen LPS at 1 mg/ml in PBS, dilute 1:1000 in medium to make 10× (1 μg/ml) for the assay. Add 6× loading buffer (CCF2-AM) 20 μL/well, and incubate at room temperature for 70˜90 min. […] The activity repressed by 100 nM dexamethasone alone is set as 100% activity.

Solubility at pH 2 = type: physicochemical
[3] = A549, Table 4, literature compounds, read-out: GRAMMER EMAX
[4] = Table 4, literature compounds, read-out: GRAMMER IP
[5] = Table 4, literature compounds, read-out: GITAR IP
[6] = U-937, Table 4, literature compounds, read-out: GITAR EMAX
[7] = A549, A549 cells, relative to 300 nM dexamethasone, read-out: Transactivation A549 Cells GRAMMER Emax
[8] = A549 cells, inflection point, read-out: Transactivation A549 Cells GRAMMER IP
[9] = U937 cells, inflection point, read-out: Transrepression U937 Cells GITAR IP
[10] = U-937, U937 cells, activity repressed by 100 nM dexamethasone set as 100%, read-out: Transrepression U937 Cells GITAR Emax
[11] = pH 2, aqueous buffer, pH 2, read-out: Solubility At pH 2

SMILES	Emax (GR [1]; [3])	EC50 (GR [1]; [4])	EC50 (GR [2]; [5])	Emax (GR [2]; [6])	solubility (Solubility at pH 2; Table 4, literature compounds)	Emax (GR [1]; A549, read-out: GRAMMER EMAX)	EC50 (GR [1]; GRAMMER IP, Table 4, literature compounds)	Emax (GR [1]; [7])	EC50 (GR [1]; [8])	EC50 (GR [2]; [9])	Emax (GR [2]; [10])	solubility (Solubility at pH 2; [11])
C[C@]12Cc3cnn(-c4ccc(F)cc4)c3C=C1CCC[C@@H]2[C@@H](O)Cc1ccccc1 [Ex. 22 WO 03/086294 A2, reference compound]	61%	122 nM	242 nM	76.8%	poor	–	–	–	–	–	–	–
C[C@]12Cc3cnn(-c4ccc(F)cc4)c3C=C1CCC[C@@H]2[C@@H](O)CCc1ccccc1 [Ex. 30 WO 03/086294 A2, reference compound]	–	–	165 nM	82.9%	poor	48.8%	166 nM	–	–	–	–	–
C[C@]12Cc3cnn(-c4ccc(F)cc4)c3C=C1CCC[C@@H]2[C@@H](O)c1ccccc1 [Ex. 35 WO 03/86294 A2, reference compound]	40.2%	195 nM	200 nM	78.8%	poor	–	–	–	–	–	–	–
CO[C@@]1(CCc2ccccc2Cl)CCC2=Cc3c(cnn3-c3ccc(F)cc3)C[C@@]21C [Ex. 103 WO 04/075840 A2, reference compound]	115%	162 nM	191 nM	93.3%	poor	–	–	–	–	–	–	–
COc1ccnc(C(O)C[C@]2(O)CCC3=Cc4c(cnn4-c4ccc(F)cc4)C[C@@]32C)c1 (stereo partly drawn) [Example 3, (4αS,5R)-1-(4-fluorophenyl)-5-[2-hydroxy-2-(4-methoxypyridin-2-yl)ethyl]-4α-methyl-1,4,4α,5,6,7-hexahydrocyclopenta[f]indazol-5-ol]	–	–	–	–	–	–	–	21.6%	132 nM	111 nM	81.3%	174 µM (≈ 75.8 µg/mL)
C[C@]12Cc3cnn(-c4ccc(F)cc4)c3C=C1CC[C@@]2(O)CC(O)c1ncccc1F (stereo partly drawn) [Example 4, (4αS,5R)-1-(4-fluorophenyl)-5-[2-(3-fluoropyridin-2-yl)-2-hydroxyethyl]-4α-methyl-1,4,4α,5,6,7-hexahydrocyclopenta[f]indazol-5-ol]	–	–	–	–	–	–	–	17.5%	698 nM	360 nM	70.6%	< 1 µM
C[C@]12Cc3cnn(-c4ccc(F)cc4)c3C=C1CC[C@@]2(O)CC(O)c1ccc(C(F)(F)F)cn1 (stereo partly drawn) [Example 6, (4αS,5R)-1-(4-fluorophenyl)-5-{2-hydroxy-2-[5-(trifluoromethyl)pyridin-2-yl]ethyl}-4α-methyl-1,4,4α,5,6,7-hexahydrocyclopenta[f]indazol-5-ol]	–	–	–	–	–	–	–	18.6%	328 nM	344 nM	76.2%	4 µM (≈ 1.89 µg/mL)
C[C@]12Cc3cnn(-c4ccc(F)cc4)c3C=C1CC[C@@]2(O)CC(O)c1cc(C#N)ccn1 (stereo partly drawn) [Example 9, 2-{2-[(4αS,5R)-1-(4-fluorophenyl)-5-hydroxy-4α-methyl-1,4,4α,5,6,7-hexahydrocyclopenta[f]indazol-5-yl]-1-hydroxyethyl}pyridine-4-carbonitrile]	–	–	–	–	–	–	–	27.4%	160 nM	48 nM	74.9%	104 µM (≈ 44.8 µg/mL)
Cc1ccnc(C(O)C[C@]2(O)CCC3=Cc4c(cnn4-c4ccc(F)cc4)C[C@@]32C)c1 (stereo partly drawn) [Example 11, (4αS,5R)-1-(4-fluorophenyl)-5-[2-hydroxy-2-(4-methylpyridin-2-yl)ethyl]-4α-methyl-1,4,4α,5,6,7-hexahydrocyclopenta[f]indazol-5-ol]	–	–	–	–	–	–	–	27.7%	162 nM	47.8 nM	69.1%	193 µM (≈ 81 µg/mL)
